Here are results for one molecule from patent US20260138981A1, “DIHYDROFOLATE REDUCTASE INHIBITORS FOR ANTI-BIOTIC RESISTANT INFECTIONS” (THE TRUSTEES OF PRINCETON UNIVERSITY, priority 2022, published 2026).

The test addresses T1, purified human DHFR (Homo sapiens, UniProt P00374).
T1 construct: purchased R&D Systems 8456-DR
Put plainly: Human DHFR in vitro assay. The test is classed as biochemical. On the procedure: FIG. 1E is an analogous assay to FIG. 2B using purified human DHFR.
Human purified DHFR was purchased from R&D Systems (8456-DR). DHFR activity was assayed by monitoring the decrease in absorbance by NADPH at […]. DHFR enzyme (0.5 μg/mL), dihydrofolic acid (100 μM), and different concentrations of methotrexate, fluorofolin, or DMSO control was dissolved in 200 μL of Tris buffer (pH 7.5, Tris salt concentration 25 mM). Reaction was initiated by adding NADPH in a 10× stock (1 mM for final concentration 100 μM), and absorbance at 340 nm was monitored over time by Cytation 5 reader (Agilent). Activity was normalized to the DMSO control.

The structures appear in SMILES notation.

T1 sequence (P00374 whole entry): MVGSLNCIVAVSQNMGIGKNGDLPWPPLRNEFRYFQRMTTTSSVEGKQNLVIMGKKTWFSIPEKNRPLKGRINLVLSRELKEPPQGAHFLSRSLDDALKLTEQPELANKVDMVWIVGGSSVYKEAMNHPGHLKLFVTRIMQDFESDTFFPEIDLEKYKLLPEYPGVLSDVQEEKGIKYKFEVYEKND

Turning to `Nc1nc(N)c2c(ccc3c2ccn3Cc2ccnc(F)c2)n1` [fluorofolin], the half-inhibitory concentration (IC50) was determined as 14 ± 4 nM.

By IC50 is commonly meant the point on the concentration scale where inhibition reaches its midpoint. Read a high IC50 as lower potency.
